The record followed here is ChEMBL document CHEMBL1201862, “PubChem BioAssay data set” (2004).

Test systems include A498; ACHN; CCRF-CEM; COLO 205; Hs-578T; K562; LOX IMVI; MCF7; NCI-H226; NCI-H522; NCI/ADR-RES; OVCAR-3; OVCAR-4; OVCAR-8; SF-539; SK-MEL-28; SNB-19; TK-10; U-251; BT-549.
Holding throughout (assay): NCI anticancer screen, dose series, 48 h

Each structure is given as a SMILES string.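 The compound was tested at five concentrations on cells cultured in 96-well plates, with a 48-hour exposure period. GI50 is the concentration that inhibits growth by half.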 Activity calls are given as the source filed them. Rule as the data show it: active = GI50 up to about 1.1 µM and inactive = higher. Bounds are passed on as bounds.

On to `CCCN1CN(c2ccccc2)C2(CCN(CCCC(=O)c3ccc(F)cc3)CC2)C1=O`, for which the GI50 with A498 was 0.933 µM (active); in the test with ACHN, 2.13 µM (inactive); with CCRF-CEM, 0.991 µM (active); with COLO 205, 0.169 µM (active); in the test with Hs-578T, 13.2 µM (inactive); in the test on K562 it was 16.3 µM (inactive). Besides, the GI50 with LOX IMVI is 4.41 µM (inactive); in the test with MCF7 it was 0.6 µM (active); in the test with NCI-H226, 6.47 µM (inactive); in the test with NCI-H522, 20.3 µM (inactive); in the test on NCI/ADR-RES, 4.53 µM (inactive); in the test with OVCAR-3, 13.8 µM (inactive). For the same compound, the GI50 in the test with OVCAR-4 was 2.48 µM (inactive); in the test with OVCAR-8 it was 16.7 µM (inactive); in the test with SF-539, 4.49 µM (inactive); with SK-MEL-28 it was 19.2 µM (inactive); in the test with SNB-19 it was 13.2 µM (inactive); in the test on TK-10, 6.62 µM (inactive). The GI50 in the test with U-251 is 14.7 µM (inactive).

Turning to `Cc1ccc(S(=O)(=O)NC(=O)Nc2ccc(S(N)(=O)=O)cc2S(N)(=O)=O)cc1`, the GI50 in the test on BT-549, with CCRF-CEM, with COLO 205, in the test on Hs-578T, with K562 and with LOX IMVI was > 100 µM (inactive) throughout. The GI50 in the test with MCF7, in the test with NCI-H226, in the test on NCI-H522, with NCI/ADR-RES, in the test on OVCAR-3 and in the test with OVCAR-4 was > 100 µM (inactive) throughout. The GI50 in the test with OVCAR-8, in the test on SK-MEL-28, in the test with SNB-19, in the test on TK-10 and with U-251 was > 100 µM (inactive) throughout.

In the case of `OCC(CCc1ccccc1I)C1=CCC2(CC1)OCCO2` (centres undefined), the GI50 in the test with A498 was 24.1 µM (inactive); in the test on ACHN it was 28.7 µM (inactive); with CCRF-CEM, 13.5 µM (inactive); with COLO 205, 20.1 µM (inactive); in the test on Hs-578T, 20.7 µM (inactive); in the test on K562 it was > 100 µM (inactive). Further, the GI50 in the test on LOX IMVI was 14.9 µM (inactive); in the test on MCF7 it was 23.3 µM (inactive); in the test with NCI-H226, 28.4 µM (inactive); with NCI-H522, 15.2 µM (inactive); in the test on NCI/ADR-RES, 20.8 µM (inactive); in the test with OVCAR-3, 18.6 µM (inactive). The GI50 with OVCAR-4 was 18.9 µM (inactive); in the test on OVCAR-8, 17 µM (inactive); in the test with SF-539, 17.6 µM (inactive); in the test with SK-MEL-28, 17.7 µM (inactive); in the test with SNB-19, 18.5 µM (inactive); with TK-10, 23.5 µM (inactive). The GI50 with U-251 is 19.7 µM (inactive).

Consider `NC1=Nc2ccccc2Sc2cccc(F)c21`, for which the GI50 in the test on A498 is 34.4 µM (inactive); in the test on ACHN, > 100 µM (inactive); in the test on BT-549 it was 95.3 µM (inactive); in the test with CCRF-CEM it was 25.2 µM (inactive); in the test on COLO 205, 61.7 µM (inactive); in the test with K562, 37.2 µM (inactive). For the same compound, the GI50 in the test with LOX IMVI is 99.5 µM (inactive); with MCF7, 65 µM (inactive); in the test with NCI-H226, 66.5 µM (inactive); with NCI-H522 it was 64.4 µM (inactive); in the test on NCI/ADR-RES, 43.7 µM (inactive); in the test with OVCAR-3, 44 µM (inactive). Further, the GI50 in the test on OVCAR-4 is 58.3 µM (inactive); in the test on OVCAR-8 it was > 100 µM (inactive); in the test with SF-539, > 100 µM (inactive); in the test on SK-MEL-28, > 100 µM (inactive); in the test with SNB-19, > 100 µM (inactive); in the test on TK-10 it was > 100 µM (inactive). The GI50 in the test with U-251 is 85.9 µM (inactive).

`Nc1cccc(Nc2nc3ccccc3nc2NS(=O)(=O)c2ccccc2)c1`: the GI50 is 27.5 µM (inactive) in the test on ACHN; 6.65 µM (inactive) with BT-549; 15.2 µM (inactive) in the test on CCRF-CEM; 15.8 µM (inactive) with COLO 205; 41.7 µM (inactive) in the test with Hs-578T; 21.1 µM (inactive) with K562. Also, the GI50 was 22.7 µM (inactive) in the test on LOX IMVI; 33.6 µM (inactive) with MCF7; 38 µM (inactive) in the test with NCI-H226; 27.3 µM (inactive) in the test with NCI/ADR-RES; 17.7 µM (inactive) with OVCAR-3; 15.6 µM (inactive) in the test with OVCAR-4. Also, the GI50 with OVCAR-8 is 30 µM (inactive); with SF-539, 19.1 µM (inactive); with SK-MEL-28 it was 18.3 µM (inactive); in the test on SNB-19 it was 19.5 µM (inactive); in the test on TK-10, 42 µM (inactive); with U-251 it was 17.7 µM (inactive).

For the compound `O=C(NCCNCCNC(=O)C(F)(F)F)C(F)(F)F`, the GI50 in the test on ACHN, with BT-549, with CCRF-CEM, in the test with COLO 205, with Hs-578T and with K562 was > 100 µM (inactive) each time. Moreover, the GI50 with LOX IMVI, in the test on MCF7, in the test on NCI-H226, in the test on NCI/ADR-RES, in the test on OVCAR-3 and in the test with OVCAR-4 was > 100 µM (inactive) each time. The GI50 in the test on OVCAR-8, in the test with SK-MEL-28, in the test on SNB-19, in the test with TK-10 and with U-251 was > 100 µM (inactive) throughout.

On to `CC1=NNC(=O)C1C1(C(=O)O)CC(c2c[nH]c3ccccc23)=NC(=S)N1` (centres undefined), for which the GI50 with A498 is 94.8 µM (inactive); in the test with ACHN, 33.5 µM (inactive); in the test on BT-549, 96.4 µM (inactive); with CCRF-CEM, 27.2 µM (inactive); with COLO 205, 17.1 µM (inactive); with Hs-578T, 15.2 µM (inactive). In addition, the GI50 in the test with K562 was 25.4 µM (inactive); in the test on LOX IMVI, 17.5 µM (inactive); in the test on NCI-H226 it was 10.1 µM (inactive); with NCI-H522, 20 µM (inactive); with NCI/ADR-RES, 46.8 µM (inactive); in the test on OVCAR-3, 18.5 µM (inactive). For the same compound, the GI50 with OVCAR-8 was 39.4 µM (inactive); in the test with SF-539 it was 24.5 µM (inactive); with SK-MEL-28, 47.1 µM (inactive); in the test on SNB-19 it was 29.3 µM (inactive); in the test on TK-10 it was > 100 µM (inactive); in the test on U-251, 26 µM (inactive).

As to `COc1ccc(S(=O)(=O)Nc2ccc(-c3csc(N4C(=O)/C(=C/C=C\c5ccccc5)N=C4c4ccccc4)n3)cc2)cc1Cl`, the GI50 with A498 is 22.5 µM (inactive); in the test with ACHN, 31.1 µM (inactive); with CCRF-CEM, 20.1 µM (inactive); with COLO 205, 39.4 µM (inactive); in the test with Hs-578T, 29.9 µM (inactive); in the test on K562, 35.2 µM (inactive). Besides, the GI50 is 19.8 µM (inactive) with LOX IMVI; 32.4 µM (inactive) in the test on MCF7; 34 µM (inactive) with NCI-H226; 18.5 µM (inactive) with NCI-H522; 28.7 µM (inactive) in the test with NCI/ADR-RES; 26.7 µM (inactive) in the test on OVCAR-3. Also, the GI50 in the test with OVCAR-4 was 25.9 µM (inactive); in the test on OVCAR-8, 23.2 µM (inactive); with SF-539 it was 36.6 µM (inactive); with SK-MEL-28, 59.7 µM (inactive); in the test on SNB-19, 33.7 µM (inactive); in the test with TK-10, 38.5 µM (inactive). Besides, the GI50 with U-251 is 28.8 µM (inactive).

Turning to `CCCSc1ccc2[nH]c(/N=C/c3ccccc3)cc2c1`, the GI50 with A498 is 28.8 µM (inactive); with ACHN, 31.2 µM (inactive); with BT-549, 33.7 µM (inactive); in the test on CCRF-CEM, 13.5 µM (inactive); in the test on COLO 205, 19.3 µM (inactive); with Hs-578T, 27.9 µM (inactive). In addition, the GI50 was 8.34 µM (inactive) in the test with K562; 17.4 µM (inactive) in the test with LOX IMVI; 15.6 µM (inactive) in the test on NCI-H522; 21.9 µM (inactive) with NCI/ADR-RES; 22.1 µM (inactive) in the test on OVCAR-3; 16.8 µM (inactive) in the test on OVCAR-4. Besides, the results for the GI50 in the test with OVCAR-8, with SF-539 and in the test on SK-MEL-28 were 23.3 µM (inactive), 20.5 µM (inactive) and 23.7 µM (inactive), respectively.

As to `COC(=O)C1=C(C(=O)OC)C2(C)CCC(=O)C1O2` (centres undefined), the GI50 with A498, in the test on ACHN, in the test with BT-549, in the test on CCRF-CEM, in the test with COLO 205 and in the test on Hs-578T was > 10 µM (inactive) throughout. Moreover, the GI50 in the test on K562, in the test with LOX IMVI, in the test on MCF7, with NCI-H226, in the test with NCI/ADR-RES and with OVCAR-3 was > 10 µM (inactive) throughout. Besides, the GI50 in the test on OVCAR-4, with OVCAR-8, in the test with SF-539, in the test with SK-MEL-28, in the test on SNB-19 and with TK-10 was > 10 µM (inactive) throughout. Also, the GI50 in the test with U-251 is > 10 µM (inactive).

With `CC1(C)CCC2(C(=O)OC3OC(CO)C(O)C(O)C3O)CCC3(C)C(=CCC4C5(C)CCC(OC6OC(CO)C(O)C(O)C6O)C(C)(C)C5CCC43C)C2C1` (centres undefined), the GI50 in the test with A498 was > 25 µM (inactive); in the test with ACHN, > 25 µM (inactive); in the test with BT-549 it was 9.44 µM (inactive); with CCRF-CEM, 4.51 µM (inactive); with COLO 205 it was 8.04 µM (inactive); in the test with Hs-578T, 10.7 µM (inactive). In addition, the GI50 is 9.04 µM (inactive) in the test with K562; 4.51 µM (inactive) in the test with LOX IMVI; 8 µM (inactive) with MCF7; 10.5 µM (inactive) in the test with NCI-H226; 5.36 µM (inactive) in the test on NCI-H522; > 25 µM (inactive) in the test on OVCAR-3. In addition, the GI50 in the test on OVCAR-4 was 11.8 µM (inactive); in the test with OVCAR-8, 15.8 µM (inactive); in the test on SF-539 it was 5.4 µM (inactive); in the test with SK-MEL-28, 6.93 µM (inactive); in the test with SNB-19, 8.32 µM (inactive); in the test on TK-10, > 25 µM (inactive). The GI50 with U-251 is 4.49 µM (inactive).
